Source: the supplement of paper PMC4862054

Each compound was assayed on CAL-51 (assay: normalised response (% of control), CellTiter-Glo; higher = more viable cells (100 = DMSO, 0 = benzethonium chloride kill control)). Settings: incubation time: 72 h.
In short: (§1)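 After 72 h with compound in 384-well plates, breast cancer cell lines seeded as 20 µl suspension were read for CellTox Green fluorescence at 485/520 nm. CellTiter-Glo luminescence was then read after 10 min at room temperature. Compound was present at 5 concentrations in 10-fold steps over a 10,000-fold range set per compound, and plates were normalised to 0.1 % DMSO (100) and a positive kill control (0). Values are normalised signals, each at a single concentration.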
With `CCc1cncnc1N1CCN(Cc2nc3ccc(C(F)(F)F)cc3[nH]2)CC1` (10 nM) the normalised response was 111%.
`Cc1ccc(-c2cc(C(F)(F)F)nn2-c2ccc(S(N)(=O)=O)cc2)cc1` [Celecoxib] (10 nM) gave a normalised response of 106%.
For `Cc1cnc(NC(=O)Nc2cc(Br)c(C)cc2OC[C@@H]2CNCCO2)cn1` [Rabusertib] (1 nM), the normalised response was 115%.
`Nc1ncn([C@H]2C[C@H](O)[C@@H](CO)O2)c(=O)n1` [Decitabine] (10 nM) gave a normalised response of 124%.
With `Nc1ccccc1NC(=O)c1ccc(CNC(=O)OCc2cccnc2)cc1` [Entinostat] (10 nM) the normalised response was 94%.
With `O=C(O)C1(C(=O)O)CCC1.[NH2-].[NH2-].[Pt+2]` [Carboplatin] (10 nM) the normalised response was 57.9%.

What follows are compounds tested on CAL-85-1 in the same assay as above. Settings: incubation time: 72 h.
In short: as §1
With `Oc1ncc(N(CCCl)CCCl)c(O)n1` [Uracil mustard] (10 nM) the normalised response was 95.2%.
In the case of `N#Cc1ccc(C(c2ccc(C#N)cc2)n2cncn2)cc1` [Letrozole] (10 nM), the normalised response is reported as 99.9%.
`Nc1nc(F)nc2c1ncn2[C@@H]1O[C@H](CO)[C@@H](O)[C@@H]1O` [Fludarabine] (10 nM) was tested, and the normalised response was 98.8%.
Compound `CCCCC(=O)OCC(=O)[C@]1(O)Cc2c(O)c3c(c(O)c2[C@@H](O[C@H]2C[C@H](NC(=O)C(F)(F)F)[C@H](O)[C@H](C)O2)C1)C(=O)c1c(OC)cccc1C3=O` [Valrubicin] (5 nM) has a normalised response of 95.6%.
With `COc1cc([C@@H]2c3cc4c(cc3[C@@H](O[C@@H]3O[C@@H]5CO[C@@H](c6cccs6)O[C@H]5[C@H](O)[C@H]3O)[C@H]3COC(=O)[C@H]23)OCO4)cc(OC)c1O` [Teniposide] (10 nM) the normalised response was 100%.
`CCc1cncnc1N1CCN(Cc2nc3ccc(C(F)(F)F)cc3[nH]2)CC1` (10 nM) gave a normalised response of 99.1%.
For `Cc1ccc(-c2cc(C(F)(F)F)nn2-c2ccc(S(N)(=O)=O)cc2)cc1` [Celecoxib] (10 nM), the normalised response was 103%.
`Cc1cnc(NC(=O)Nc2cc(Br)c(C)cc2OC[C@@H]2CNCCO2)cn1` [Rabusertib] (1 nM) gave a normalised response of 103%.
`Nc1ncn([C@H]2C[C@H](O)[C@@H](CO)O2)c(=O)n1` [Decitabine] (10 nM) showed a normalised response of 90%.
`Nc1ccccc1NC(=O)c1ccc(CNC(=O)OCc2cccnc2)cc1` [Entinostat] (10 nM) gave a normalised response of 107%.
Work on `O=C(O)C1(C(=O)O)CCC1.[NH2-].[NH2-].[Pt+2]` [Carboplatin] (10 nM) yielded a normalised response of 99.5%.

What follows are compounds tested on DU-4475 in the same assay as above. Settings: incubation time: 72 h.
In short: as §1
Work on `Oc1ncc(N(CCCl)CCCl)c(O)n1` [Uracil mustard] (10 nM) yielded a normalised response of 97.7%.
`N#Cc1ccc(C(c2ccc(C#N)cc2)n2cncn2)cc1` [Letrozole] (10 nM) showed a normalised response of 98.2%.
Work on `Nc1nc(F)nc2c1ncn2[C@@H]1O[C@H](CO)[C@@H](O)[C@@H]1O` [Fludarabine] (10 nM) yielded a normalised response of 107%.
In the case of `CCCCC(=O)OCC(=O)[C@]1(O)Cc2c(O)c3c(c(O)c2[C@@H](O[C@H]2C[C@H](NC(=O)C(F)(F)F)[C@H](O)[C@H](C)O2)C1)C(=O)c1c(OC)cccc1C3=O` [Valrubicin] (5 nM), the normalised response is reported as 101%.
`COc1cc([C@@H]2c3cc4c(cc3[C@@H](O[C@@H]3O[C@@H]5CO[C@@H](c6cccs6)O[C@H]5[C@H](O)[C@H]3O)[C@H]3COC(=O)[C@H]23)OCO4)cc(OC)c1O` [Teniposide] (10 nM) was tested, and the normalised response was 78.2%.
`CCc1cncnc1N1CCN(Cc2nc3ccc(C(F)(F)F)cc3[nH]2)CC1` (10 nM) showed a normalised response of 104%.
Compound `Cc1ccc(-c2cc(C(F)(F)F)nn2-c2ccc(S(N)(=O)=O)cc2)cc1` [Celecoxib] (10 nM) has a normalised response of 101%.
In the case of `Cc1cnc(NC(=O)Nc2cc(Br)c(C)cc2OC[C@@H]2CNCCO2)cn1` [Rabusertib] (1 nM), the normalised response is reported as 108%.
Compound `Nc1ncn([C@H]2C[C@H](O)[C@@H](CO)O2)c(=O)n1` [Decitabine] (10 nM) has a normalised response of 105%.
`Nc1ccccc1NC(=O)c1ccc(CNC(=O)OCc2cccnc2)cc1` [Entinostat] (10 nM) showed a normalised response of 101%.
For `O=C(O)C1(C(=O)O)CCC1.[NH2-].[NH2-].[Pt+2]` [Carboplatin] (10 nM), the normalised response was 95.9%.

What follows are compounds tested on HCC1143 in the same assay as above. Settings: incubation time: 72 h.
In short: as §1
Work on `Oc1ncc(N(CCCl)CCCl)c(O)n1` [Uracil mustard] (10 nM) yielded a normalised response of 105%.
`N#Cc1ccc(C(c2ccc(C#N)cc2)n2cncn2)cc1` [Letrozole] (10 nM) gave a normalised response of 97.4%.
With `Nc1nc(F)nc2c1ncn2[C@@H]1O[C@H](CO)[C@@H](O)[C@@H]1O` [Fludarabine] (10 nM) the normalised response was 108%.
`CCCCC(=O)OCC(=O)[C@]1(O)Cc2c(O)c3c(c(O)c2[C@@H](O[C@H]2C[C@H](NC(=O)C(F)(F)F)[C@H](O)[C@H](C)O2)C1)C(=O)c1c(OC)cccc1C3=O` [Valrubicin] (5 nM) was tested, and the normalised response was 102%.
Work on `COc1cc([C@@H]2c3cc4c(cc3[C@@H](O[C@@H]3O[C@@H]5CO[C@@H](c6cccs6)O[C@H]5[C@H](O)[C@H]3O)[C@H]3COC(=O)[C@H]23)OCO4)cc(OC)c1O` [Teniposide] (10 nM) yielded a normalised response of 96.9%.
Compound `CCc1cncnc1N1CCN(Cc2nc3ccc(C(F)(F)F)cc3[nH]2)CC1` (10 nM) has a normalised response of 111%.
Compound `Cc1ccc(-c2cc(C(F)(F)F)nn2-c2ccc(S(N)(=O)=O)cc2)cc1` [Celecoxib] (10 nM) has a normalised response of 104%.
`Cc1cnc(NC(=O)Nc2cc(Br)c(C)cc2OC[C@@H]2CNCCO2)cn1` [Rabusertib] (1 nM) was tested, and the normalised response was 104%.
In the case of `Nc1ncn([C@H]2C[C@H](O)[C@@H](CO)O2)c(=O)n1` [Decitabine] (10 nM), the normalised response is reported as 103%.
`Nc1ccccc1NC(=O)c1ccc(CNC(=O)OCc2cccnc2)cc1` [Entinostat] (10 nM) was tested, and the normalised response was 101%.
In the case of `O=C(O)C1(C(=O)O)CCC1.[NH2-].[NH2-].[Pt+2]` [Carboplatin] (10 nM), the normalised response is reported as 104%.

The compounds below were run on HCC1599 in the same assay as above. Settings: incubation time: 72 h.
In short: as §1
`Oc1ncc(N(CCCl)CCCl)c(O)n1` [Uracil mustard] (10 nM) gave a normalised response of 87%.
For `N#Cc1ccc(C(c2ccc(C#N)cc2)n2cncn2)cc1` [Letrozole] (10 nM), the normalised response was 98.2%.
`Nc1nc(F)nc2c1ncn2[C@@H]1O[C@H](CO)[C@@H](O)[C@@H]1O` [Fludarabine] (10 nM) gave a normalised response of 98.5%.
Work on `CCCCC(=O)OCC(=O)[C@]1(O)Cc2c(O)c3c(c(O)c2[C@@H](O[C@H]2C[C@H](NC(=O)C(F)(F)F)[C@H](O)[C@H](C)O2)C1)C(=O)c1c(OC)cccc1C3=O` [Valrubicin] (5 nM) yielded a normalised response of 96.5%.
`COc1cc([C@@H]2c3cc4c(cc3[C@@H](O[C@@H]3O[C@@H]5CO[C@@H](c6cccs6)O[C@H]5[C@H](O)[C@H]3O)[C@H]3COC(=O)[C@H]23)OCO4)cc(OC)c1O` [Teniposide] (10 nM) showed a normalised response of 103%.
In the case of `CCc1cncnc1N1CCN(Cc2nc3ccc(C(F)(F)F)cc3[nH]2)CC1` (10 nM), the normalised response is reported as 98.7%.
With `Cc1ccc(-c2cc(C(F)(F)F)nn2-c2ccc(S(N)(=O)=O)cc2)cc1` [Celecoxib] (10 nM) the normalised response was 105%.
In the case of `Cc1cnc(NC(=O)Nc2cc(Br)c(C)cc2OC[C@@H]2CNCCO2)cn1` [Rabusertib] (1 nM), the normalised response is reported as 101%.
`Nc1ncn([C@H]2C[C@H](O)[C@@H](CO)O2)c(=O)n1` [Decitabine] (10 nM) showed a normalised response of 102%.
`Nc1ccccc1NC(=O)c1ccc(CNC(=O)OCc2cccnc2)cc1` [Entinostat] (10 nM) was tested, and the normalised response was 95.7%.
With `O=C(O)C1(C(=O)O)CCC1.[NH2-].[NH2-].[Pt+2]` [Carboplatin] (10 nM) the normalised response was 99.2%.
